In patent US20030199581A1, “Boswellin compositions enhanced with 3-beta-acetyl-11-keto-beta-boswellic acid ("AKBA") industrial manufacture and uses” (priority 2002, published 2003):
Read-outs that look alike come from different tables or passages of the source.

What was measured:
PC-3 (prostate cancer) = test: 3-day MTT assay, PC-3 cells; format: cell-based, human
Protocol: The IC50s were determined using a standard MTT assay using CEM (lymphoblastic leukemia), Du 145 (prostate cancer), PC-3 (prostate cancer), LNCaP (prostate cancer), Sk-MEL2 (human melanoma), P388D1 (murine leukemia), K562 (human mycloid leukemia), A549 (human lung cancer), MCF-7 (human breast cancer), B16F (murine melanoma) cancer cell lines (Table 2). […] DU145, PC-3 and CEM cells in culture we studied to determine whether other natural products have synergistic effects with AKBA enriched boswellin. Methods for culturing the cells are described above in Example 6. To different samples of cells, we added AKBA enriched boswellin in concentrations from 0 to 120 μg/ml, resveratrol in concentrations from 0 to 3125 ng/ml, baicalin in concentrations from 0 to 3125 ng/ml and licochalcone A in concentrations from 0 to 800 μg/ml. In analogous concentrations combinations of AKBA enriched boswellin and resveratrol, baicalin and licochalcone A were studied. Cell survival was measured using the MTT assay described above.

[1] = test system: CEM (lymphoblastic leukemia); test: 3-day MTT assay, CEM cells; format: cell-based, human; conditions: 195 ng/ml phytochemical alone
Protocol: (§1) Biological activities of the materials produced as described in Examples 1 to 5 were determined using cultured cells. The IC50s of Boswellin (“BA1”), AKBA enriched peracetylated boswellin (“BA2”) and AKBA enriched boswellin (“BA3”) in various human and murine prostate, leukemia, melanoma, lung and breast cancer cell lines were determined. The IC50s were determined using a standard MTT assay using CEM (lymphoblastic leukemia), Du 145 (prostate cancer), PC-3 (prostate cancer), LNCaP (prostate cancer), Sk-MEL2 (human melanoma), P388D1 (murine leukemia), K562 (human mycloid leukemia), A549 (human lung cancer), MCF-7 (human breast cancer), B16F (murine melanoma) cancer cell lines (Table 2).
(§2) DU145, PC-3 and CEM cells in culture we studied to determine whether other natural products have synergistic effects with AKBA enriched boswellin. Methods for culturing the cells are described above in Example 6. To different samples of cells, we added AKBA enriched boswellin in concentrations from 0 to 120 μg/ml, resveratrol in concentrations from 0 to 3125 ng/ml, baicalin in concentrations from 0 to 3125 ng/ml and licochalcone A in concentrations from 0 to 800 μg/ml. In analogous concentrations combinations of AKBA enriched boswellin and resveratrol, baicalin and licochalcone A were studied. Cell survival was measured using the MTT assay described above.

DU145 (prostate cancer) = test: 3-day MTT assay, DU145 cells; format: cell-based, human; conditions: DU145, 195 ng/ml phytochemical alone
Protocol: as §1, §2

LNCaP cells = test: Growth inhibition by cell counting, LNCaP cells; format: cell-based; conditions: Homo sapiens, 100 μg/ml, read-out: growth inhibition as compared to controls
Protocol: DU145 and LNCaP cells were obtained from ATCC. The cells were grown in Eagle's MEM supplemented with 1 mM sodium pyruvate, 0.1 mM glutamine, 1.5 g/l sodium bicarbonate, and 10% fetal bovine serum. A confluent plate of cells contained approximately 2×10^6 DU145cells and 10^6 LNCaP cells.
The test drug dissolved in DMSO at a concentration of 100 mg/ml was added to 6 test plates and to control plates. Two control and two drug plates each were harvested with addition of 1 ml/plate of trypsin-EDTA at 24, 48, and 72 hrs and counted by […]. The trypsinized plates were incubated for 3 min at 37° C., and 5 ml DMEM was added to each plate. Cells were collected in 15 ml tubes, and 2 ml of each cell suspension was added to 20 ml Isoton and counted.

Q: With `C=CC(C)(C)c1cc(/C=C/C(=O)c2ccc(O)cc2)c(OC)cc1O` [licochalcone A] as the molecule, how does the “% cell survival (conc. phytochemical)” value (PC-3 (prostate cancer); PC-3, 3.1 μg/ml phytochemical alone) read?
A: 98 (3.1 μg/ml licochalcone A) %

Q: With `O=C(O)[C@H]1O[C@@H](Oc2cc3oc(-c4ccccc4)cc(=O)c3c(O)c2O)[C@H](O)[C@@H](O)[C@@H]1O` [baicalin] as the molecule, how does the “% cell survival (conc. phytochemical)” value (PC-3 (prostate cancer); PC-3, 12 ng/ml phytochemical alone) read?
A: 93 (12 ng/ml baicalin) %

Q: What about the “% cell survival (conc. phytochemical)” value [1] of the same molecule?
A: 85 (195 ng/ml baicalin) %

Q: What about the “% cell survival (conc. phytochemical)” value (DU145 (prostate cancer)) of the same molecule?
A: 78 (195 ng/ml baicalin) %

Q: How did the “% cell survival (conc. phytochemical)” value [1] turn out when `Oc1ccc(C=Cc2cc(O)cc(O)c2)cc1` [resveratrol] was run?
A: 85 (195 ng/ml resveratrol) %

Q: What about the “% cell survival (conc. phytochemical)” value (DU145 (prostate cancer)) of the same molecule?
A: 89 (195 ng/ml resveratrol) %

Q: Which results are given for `O=c1c(-c2ccc(O)cc2)coc2cc(O)cc(O)c12` [Genistein]?
A: inhibition at 100 µg/mL (LNCaP cells; 24 h): 32%; inhibition at 100 µg/mL (LNCaP cells; 48 h): 49.4%; inhibition at 100 µg/mL (LNCaP cells; 72 h): 60.8%
